Key:
[1] = target: T1, human adrenergic-α2A receptor (Homo sapiens, UniProt P08913); assay: Radioligand binding experiment for hα2A-adrenergic receptor ([3H]raulwolscine); conditions: [3H]raulwolscine 1 nM, 60 minutes at 25° C.; for IC50: read-out: h-α2A pIC50 (converted)
T1 construct: expressed in transfected cells; host or cells: CHO cells, stably transfected; membrane preparation
T1 sequence (P08913 1-465): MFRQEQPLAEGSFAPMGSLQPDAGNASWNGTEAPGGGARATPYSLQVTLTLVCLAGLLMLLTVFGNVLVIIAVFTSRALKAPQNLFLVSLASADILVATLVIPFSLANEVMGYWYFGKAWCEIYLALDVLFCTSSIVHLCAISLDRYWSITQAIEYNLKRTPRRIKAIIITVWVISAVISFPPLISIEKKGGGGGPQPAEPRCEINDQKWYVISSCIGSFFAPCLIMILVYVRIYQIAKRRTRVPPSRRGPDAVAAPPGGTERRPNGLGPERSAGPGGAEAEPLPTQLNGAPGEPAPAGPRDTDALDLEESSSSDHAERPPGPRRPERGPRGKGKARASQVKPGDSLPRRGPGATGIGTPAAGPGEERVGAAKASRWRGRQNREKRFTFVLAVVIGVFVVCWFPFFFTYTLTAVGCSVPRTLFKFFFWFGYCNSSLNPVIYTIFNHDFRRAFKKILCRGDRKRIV
How it was run: (§1)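 CHO membranes expressing human α2A or α2C receptors were incubated with 1 nM [^3H]raulwolscine for 60 min at 25° C in glycylglycine 25 mM, pH 8.0, then filtered. Nonspecific binding was defined with 1 μM oxymetazoline for α2A and 1 μM spiroxatrine for α2C. pIC50 came from sigmoidal competition curves.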

[2] = target: T2, human adrenergic-α2C receptor (Homo sapiens, UniProt P18825); assay: Radioligand binding experiment for hα2C-adrenoceptor ([3H]raulwolscine); conditions: [3H]raulwolscine 1 nM, 60 minutes at 25° C.; for IC50: read-out: h-α2C pIC50 (converted)
T2 construct: expressed in transfected cells; host or cells: CHO cells, stably transfected; membrane preparation
T2 sequence (P18825 1-462): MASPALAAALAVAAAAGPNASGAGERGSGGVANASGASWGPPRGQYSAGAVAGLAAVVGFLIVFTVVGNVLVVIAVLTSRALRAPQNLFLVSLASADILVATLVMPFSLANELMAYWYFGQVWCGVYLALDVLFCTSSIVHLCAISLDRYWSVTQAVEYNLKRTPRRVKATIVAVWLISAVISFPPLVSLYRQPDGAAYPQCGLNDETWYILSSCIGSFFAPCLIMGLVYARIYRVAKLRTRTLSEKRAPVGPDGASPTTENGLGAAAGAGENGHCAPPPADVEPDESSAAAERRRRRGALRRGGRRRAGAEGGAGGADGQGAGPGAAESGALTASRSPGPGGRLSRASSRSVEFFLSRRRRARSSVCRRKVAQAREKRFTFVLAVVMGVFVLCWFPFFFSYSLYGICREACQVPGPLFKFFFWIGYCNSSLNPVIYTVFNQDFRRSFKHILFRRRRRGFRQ
How it was run: as §1

5HT-transporter = target: T3, 5HT-transporter (Homo sapiens, UniProt P31645); assay: Binding experiment for the 5HT-transporter ([3H]paroxetine, human platelet membranes); conditions: [3H]paroxetine 0.5 nM, 60 min at 25° C.; for IC50: read-out: h-5HTT pIC50 (converted)
T3 construct: Human platelet membranes (Oceanix Biosciences Corporation, Hanover, Md., USA) were thawed; tissue Oceanix Biosciences Corporation, Hanover, Md., USA; host or cells: human platelet membranes
T3 sequence (P31645 whole entry): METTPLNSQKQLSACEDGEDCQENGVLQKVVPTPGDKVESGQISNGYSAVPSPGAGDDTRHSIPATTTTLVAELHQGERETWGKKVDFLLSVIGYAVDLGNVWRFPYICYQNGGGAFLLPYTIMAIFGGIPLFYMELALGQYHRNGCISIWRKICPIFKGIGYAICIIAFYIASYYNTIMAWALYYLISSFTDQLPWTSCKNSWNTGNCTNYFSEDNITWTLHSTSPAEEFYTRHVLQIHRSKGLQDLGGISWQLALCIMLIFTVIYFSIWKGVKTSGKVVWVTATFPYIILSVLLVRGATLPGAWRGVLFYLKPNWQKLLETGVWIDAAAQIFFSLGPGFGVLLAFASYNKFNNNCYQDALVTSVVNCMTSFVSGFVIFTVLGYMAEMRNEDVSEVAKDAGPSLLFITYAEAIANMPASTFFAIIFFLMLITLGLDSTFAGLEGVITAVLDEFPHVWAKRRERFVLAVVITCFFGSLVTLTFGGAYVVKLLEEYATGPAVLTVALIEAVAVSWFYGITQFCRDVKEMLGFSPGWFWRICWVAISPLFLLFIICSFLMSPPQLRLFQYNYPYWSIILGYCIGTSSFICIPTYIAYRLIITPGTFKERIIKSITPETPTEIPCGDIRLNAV
How it was run: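 Competition binding of [3H]paroxetine to human platelet membranes in Tris-HCl 50 mM with 120 mM NaCl and 5 mM KCl; bound radioligand separated by GF/B filtration and counted.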

| Compound | IC50 [1] | IC50 [2] | IC50 (5HT-transporter) | h-α2A pIC50 [1] | h-α2C pIC50 [2] | h-5HTT pIC50 (5HT-transporter) |
| --- | --- | --- | --- | --- | --- | --- |
| O=c1c(NC2CCN(Cc3ccc4ccccc4c3)CC2)nccn1Cc1cc2ccccc2cn1 [6-10] | 251 nM | 63.1 nM | 126 nM |  |  |  |
| O=c1[nH]ncn1CCCn1ccnc(NC2CCN(Cc3ccc4ccccc4c3)CC2)c1=O [6-11] | 794 nM | 100 nM | 126 nM |  |  |  |
| O=c1c(NC2CCN(Cc3ccc4ccccc4c3)CC2)nccn1-c1ccc2c(c1)CN(CCO)CC2 [6-12] | 31.6 nM | 5.01 nM | 39.8 nM |  |  |  |
| CC(=O)N1CCc2ccc(-n3ccnc(NC4CCN(Cc5ccc6ccccc6c5)CC4)c3=O)cc2C1 [6-13] | 126 nM | 10 nM | 25.1 nM |  |  |  |
| Cn1ccnc1CN1CCc2ccc(-n3ccnc(NC4CCN(Cc5ccc6ccccc6c5)CC4)c3=O)cc2C1 [6-15] | 100 nM | 3.98 nM | 10 nM |  |  |  |
| O=c1c(NC2CCN(Cc3ccc4ccccc4c3)CC2)nccn1-c1ccccn1 [6-16] | 63.1 nM | 25.1 nM | 158 nM |  |  |  |
| O=c1[nH]c(-c2cccc(Br)c2)c(Cl)nc1NC1CCN(Cc2ccc3ccccc3c2)CC1 [7-01] | 1580 nM | 794 nM | 501 nM |  |  |  |
| O=c1[nH]c(-c2cccc(CNCCF)c2)c(Cl)nc1NC1CCN(Cc2ccc3ccccc3c2)CC1 [7-03] | 794 nM | 200 nM | 794 nM |  |  |  |
| O=c1[nH]c(-c2cccc(CNCC3CCCO3)c2)c(Cl)nc1NC1CCN(Cc2ccc3ccccc3c2)CC1 (stereo not drawn) [7-04] | 631 nM | 126 nM | 398 nM |  |  |  |
| O=c1[nH]c(-c2cccc(CN3CCCCC3)c2)c(Cl)nc1NC1CCN(Cc2ccc3ccccc3c2)CC1 [7-05] | 794 nM | 126 nM | 631 nM |  |  |  |
| O=c1[nH]c(-c2cccc(CN3CCC(F)CC3)c2)c(Cl)nc1NC1CCN(Cc2ccc3ccccc3c2)CC1 [7-06] | 1260 nM | 251 nM | 1000 nM |  |  |  |
| O=c1[nH]c(-c2cccc(CN3CCOCC3)c2)c(Cl)nc1NC1CCN(Cc2ccc3ccccc3c2)CC1 [7-08] | 1580 nM | 501 nM | 1260 nM |  |  |  |
| CN1CCN(Cc2cccc(-c3[nH]c(=O)c(NC4CCN(Cc5ccc6ccccc6c5)CC4)nc3Cl)c2)CC1 [7-10] | 631 nM | 100 nM | 200 nM |  |  |  |
| COc1ccc(Cn2c(-c3ccc(CO)cc3)c(Cl)nc(NC3CCN(Cc4ccc5ccccc5c4)CC3)c2=O)cc1 [8-03] | 200 nM | 251 nM | 126 nM |  |  |  |
| COC(=O)c1ccc(-c2c(Cl)nc(NC3CCN(Cc4ccc5ccccc5c4)CC3)c(=O)n2Cc2ccc(OC)cc2)cc1 [8-04] | 1260 nM | 1260 nM | 794 nM |  |  |  |
| COc1ccc(Cn2c(-c3cccc(CNCC4CCCO4)c3)c(Cl)nc(NC3CCN(Cc4ccc5ccccc5c4)CC3)c2=O)cc1 (stereo not drawn) [8-07] | 501 nM | 158 nM | 100 nM |  |  |  |
| COc1ccc(Cn2c(-c3ccc(CNCC4CCCO4)cc3)c(Cl)nc(NC3CCN(Cc4ccc5ccccc5c4)CC3)c2=O)cc1 (stereo not drawn) [8-08] | 316 nM | 200 nM | 63.1 nM |  |  |  |
| COc1ccc(Cn2c(-c3cccc(CN4CCCCC4)c3)c(Cl)nc(NC3CCN(Cc4ccc5ccccc5c4)CC3)c2=O)cc1 [8-09] | 100 nM | 50.1 nM | 50.1 nM |  |  |  |
| COc1ccc(Cn2c(-c3cccc(CN4CCC(O)CC4)c3)c(Cl)nc(NC3CCN(Cc4ccc5ccccc5c4)CC3)c2=O)cc1 [8-10] | 158 nM | 79.4 nM | 31.6 nM |  |  |  |
| COc1ccc(Cn2c(-c3ccc(CN4CCC(O)CC4)cc3)c(Cl)nc(NC3CCN(Cc4ccc5ccccc5c4)CC3)c2=O)cc1 [8-11] | 126 nM | 39.8 nM | 31.6 nM |  |  |  |
| COc1ccc(Cn2c(-c3cccc(CN4CCC(F)CC4)c3)c(Cl)nc(NC3CCN(Cc4ccc5ccccc5c4)CC3)c2=O)cc1 [8-12] | 100 nM | 79.4 nM | 126 nM |  |  |  |
| COc1ccc(Cn2c(-c3cccc(N4CCC(N5CCCC5)CC4)c3)c(Cl)nc(NC3CCN(Cc4ccc5ccccc5c4)CC3)c2=O)cc1 [8-13] | 501 nM | 126 nM | 126 nM |  |  |  |
| COc1ccc(Cn2c(-c3cccc(CN4CCN(C)CC4)c3)c(Cl)nc(NC3CCN(Cc4ccc5ccccc5c4)CC3)c2=O)cc1 [8-14] | 501 nM | 126 nM | 50.1 nM |  |  |  |

More lines, now with the values ahead:

| IC50 [1] | IC50 [2] | IC50 (5HT-transporter) | h-α2A pIC50 [1] | h-α2C pIC50 [2] | h-5HTT pIC50 (5HT-transporter) | Compound |
| --- | --- | --- | --- | --- | --- | --- |
| 631 nM | 79.4 nM | 31.6 nM |  |  |  | O=C1c2ccccc2C(=O)N1CCCn1ccnc(N2CCN(Cc3ccc4ccccc4c3)CC2)c1=O [9-01] |
|  |  |  | 6.6 | 7.5 | 7.3 | O=C(O)C(F)(F)F.O=C1c2ccccc2C(=O)N1CCCn1ccnc(NCCN2CCN(Cc3ccc4ccccc4c3)CC2)c1=O [9-02] |
| 251 nM | 39.8 nM | 39.8 nM |  |  |  | O=C(CCN(c1nccn(CCC(=O)c2ccccc2)c1=O)C1CCN(Cc2ccc3ccccc3c2)CC1)c1ccccc1 [9-03] |
| 1580 nM | 794 nM | 25.1 nM |  |  |  | O=C(CCn1ccnc(NC2CCN(Cc3ccc4ncccc4c3)CC2)c1=O)c1ccccc1 [9-05] |
| 1260 nM | 316 nM | 39.8 nM |  |  |  | O=c1c(NC2CCN(Cc3ccc4ncccc4c3)CC2)nccn1CCCOCc1ccccc1 [9-06] |
| 1580 nM | 63.1 nM | 50.1 nM |  |  |  | O=C1c2ccccc2C(=O)N1CCCn1ccnc(NC2CCN(Cc3ccc4ncccc4c3)CC2)c1=O [9-07] |
| 316 nM | 50.1 nM | 126 nM |  |  |  | O=C(CCN(c1nccn(CCC(=O)c2ccccc2)c1=O)C1CCN(Cc2ccc3ccccc3n2)CC1)c1ccccc1 [9-09] |
| 501 nM | 63.1 nM | 794 nM |  |  |  | O=c1c(NC2CCN(Cc3ccc4ncccc4c3)CC2)nccn1CCCOc1ccccc1 [9-12] |
| 3160 nM | 398 nM | > 10000 nM |  |  |  | O=c1[nH]ccnc1NC1CCN(Cc2ccc3ncccc3c2)CC1 [9-13] |
| 631 nM | 126 nM | 3980 nM |  |  |  | CCOC(=O)CCCCn1ccnc(NC2CCN(Cc3ccc4ccccc4n3)CC2)c1=O [9-14] |
| 631 nM | 158 nM | 631 nM |  |  |  | O=c1c(NC2CCN(Cc3ccc4ccccc4n3)CC2)nccn1CCOc1ccccc1 [9-15] |
| 2000 nM | 63.1 nM | 1000 nM |  |  |  | O=C1c2ccccc2C(=O)N1CC#CCn1ccnc(NC2CCN(Cc3ccc4ccccc4n3)CC2)c1=O [9-18] |
| 3160 nM | 398 nM | 398 nM |  |  |  | O=C(CCN(c1nccn(CCC(=O)c2ccccc2)c1=O)C1CCN(Cc2cnc3ccccc3c2)CC1)c1ccccc1 [9-20] |
| 1260 nM | 200 nM | 2000 nM |  |  |  | CCOC(=O)CCCCn1ccnc(NC2CCN(Cc3cnc4ccccc4c3)CC2)c1=O [9-21] |
| 398 nM | 1000 nM | 1260 nM |  |  |  | NCc1ccc(Cn2ccnc(N3CCN(Cc4cccc5ccccc45)CC3)c2=O)cc1 [9-23] |
| 5010 nM | 398 nM | > 10000 nM |  |  |  | CN(C)C(=O)Cn1ccnc(N2CCN(Cc3cccc4ccccc34)CC2)c1=O [9-24] |
| 631 nM | 398 nM | 1260 nM |  |  |  | CC(C)(C)OC(=O)NCc1ccc(Cn2ccnc(N3CCN(Cc4cccc5ccccc45)CC3)c2=O)cc1 [9-25] |
| 501 nM | 1000 nM | 2510 nM |  |  |  | O=c1c(N2CCN(Cc3cccc4ccccc34)CC2)nccn1Cc1ccccc1 [9-26] |
| > 10000 nM | 794 nM | 631 nM |  |  |  | O=C1c2ccccc2C(=O)N1CCCn1ccnc(NC2CCN(Cc3cnc4ccccc4c3)CC2)c1=O [9-27] |
| > 10000 nM | 631 nM | 200 nM |  |  |  | O=C(CCN(c1nccn(CCC(=O)c2ccccc2)c1=O)C1CCN(Cc2ccnc3ccccc23)CC1)c1ccccc1 [9-28] |
| 631 nM | 501 nM | > 10000 nM |  |  |  | O=c1c(N2CCN(Cc3ccc4ccccc4n3)CC2)nccn1Cc1ccccc1 [9-29] |
